Assay results reported in patent publication US20020183305A1 (Schering Corporation, priority 2001, published 2002).

Test system: Hypercholesterolemic Golden Syrian hamsters
Test: In vivo efficacy in cholesterol-fed hypercholesterolemic hamsters (plasma cholesterol, plasma triglyceride, hepatic cholesteryl ester)
[1] = cholesterol-fed hamsters, versus Control, Table 1

Experimental: Male Golden Syrian hamsters (Charles River Labs, Wilmington, MA) weighing between 100 and 125 g were fed Wayne rodent chow until study onset. At study onset (Day 1) animals were separated into groups (n=4-6/group) and fed chow supplemented with 0.5% by weight of cholesterol (Research Diets Inc., New Brunswick, NJ). The Control and Test compounds were administered once daily for 7 days, starting on Day 1 via oral gavage in 0.2 ml corn oil. Corn oil was used as the Control.
On Day 7, blood was collected into tubes containing ethylenediaminetetraacetic acid (EDTA), and plasma was prepared by low speed centrifugation at 40C. Liver samples (0.5 g) were taken for neutral lipid analyses.
Nonfasted plasma cholesterol levels were determined by a modification of the cholesterol oxidase method, in which the reagents were available in a kit form from Wako Pure Chemicals Industries, Ltd. (Osaka, Japan). […] Assays were carried out at 37° C. for 10 min, along with cholesterol standards (Sigma Chemical Co., St. Louis, Mo.) and the resultant red quinone pigment's absorbance was determined spectrophotometrically at 505 nm.
Samples of liver (0.5 g) were lipid extracted. Lipid extracts were dried under nitrogen into HPLC sample vials, resuspended in hexane and injected onto a Zorbax Sil (4.6×25 cm) silica column. […] Lipids were detected by absorbance at 206 nm and quantitated by computer integration (System Gold, Beckman) of elution profiles. […] Cholesteryl ester content of liver-derived samples was derived from a standard curve constructed using known amounts of cholesteryl oleate.

## COc1ccc([C@@H]2[C@@H](CCCc3ccccc3)C(=O)N2c2ccc(OC)cc2)cc1 [Compound XII]
[1]
  effect on accumulation of hepatic cholesteryl esters (in words): reduced
  effect on plasma cholesterol levels (in words): reduced
Male hamsters fed chow with 0.5% cholesterol, oral gavage in corn oil once daily for 7 days, liver Day 7, Compound XII 3 mg/kg/day, niacin 100 mg/kg/day
  Hepatic Cholesteryl Ester: 12.75 ± 1.12 mg/g
Male hamsters fed chow with 0.5% cholesterol, oral gavage in corn oil once daily for 7 days, nonfasted plasma Day 7, Compound XII 3 mg/kg/day, niacin 100 mg/kg/day
  Plasma Cholesterol: 214 ± 13 mg/dL
Male hamsters fed chow with 0.5% cholesterol, oral gavage in corn oil once daily for 7 days, plasma Day 7, Compound XII 3 mg/kg/day, niacin 100 mg/kg/day
  Plasma Triglyceride: 200 ± 30 mg/dL
